Measurements: patent US20250381243A1, “HETEROCYCLES AND USES THEREOF” (Kumquat Biosciences Inc., priority 2022, published 2025)
Where two headings read alike, the source gives them in different places.

System: A549 cells
Assay: Cell proliferation assay (CellTiter-Glo), cells with K-Ras G12S mutation
Assay type: cell-based
Settings: Homo sapiens, read-out: Inhibition of A549 Cells (IC50)
Summary of the method: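 A549 (K-Ras G12S) cells in RPMI-1640 with 10% heat-inactivated FBS, plated in standard or ultra-low-attachment 384-well format, treated next day with a dilution series (e.g., 10-point, 3-fold). Viability read by CellTiter-Glo luminescence about 6 days later; IC50 from four-parameter fit.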

Row | SMILES | IC50 (≤500 nM) | IC50 (500 nM to 5 μM (mixed units))
1 | CC(C)[C@H]1N(C(=O)n2cnc(C(F)F)n2)C[C@]12CC[C@H](C)N(c1nc(OC[C@@]34CCCN3C[C@H](F)C4)nc3c(F)c(-c4ccc(F)c5sc(N)c(C#N)c45)c(Cl)cc13)C2 (atropisomer, axis not shown; (aS)) [Compound 109, (R)-2-amino-4-(6-chloro-4-((1R,4R,7S)-2-(3-(difluoromethyl)-1H-1,2,4-triazole-1-carbonyl)-1-isopropyl-7-methyl-2,6-diazaspiro[3.5]nonan-6-yl)-8-fluoro-2-(((2R,7aS)-2-fluorotetrahydro-1H-pyrrolizin-7a(5H)-yl)methoxy)quinazolin-7-yl)-7-fluorobenzo[b]thiophene-3-carbonitrile] | ≤ 0.5 µM | –
2 | CC([C@H]1CCN1C(=O)n1cnc(Cl)n1)N(C)c1nc(OC[C@@]23CCCN2C[C@H](F)C3)nc2c(F)c(-c3ccc(F)c4sc(N)c(C#N)c34)c(Cl)cc12 (stereo partly drawn) [Compound 172, (4R)-2-amino-4-(6-chloro-4-((1-(1-(3-chloro-1H-1,2,4-triazole-1-carbonyl)azetidin-2-yl)ethyl)(methyl)amino)-8-fluoro-2-(((2R,7aS)-2-fluorotetrahydro-1H-pyrrolizin-7a (5H)-yl)methoxy)quinazolin-7-yl)-7-fluorobenzo[b]thiophene-3-carbonitrile] | – | 0.5 to 5 µM
3 | CC(C)[C@@H]1[C@H](CN(C)c2nc(OC[C@@]34CCCN3C[C@H](F)C4)nc3c(F)c(-c4ccc(F)c5sc(N)c(C#N)c45)c(Cl)cc23)CN1C(=O)n1cnc(C(F)F)n1 [Compound 230, 2-amino-4-(6-chloro-4-((((2R,3R)-1-(3-(difluoromethyl)-1H-1,2,4-triazole-1-carbonyl)-2-isopropylazetidin-3-yl)methyl)(methyl)amino)-8-fluoro-2-(((2R,7aS)-2-fluorotetrahydro-1H-pyrrolizin-7a(5H)-yl)methoxy)quinazolin-7-yl)-7-fluorobenzo[b]thiophene-3-carbonitrile] | ≤ 0.5 µM | –
4 | CN(C[C@@H]1CN(C(=O)n2cnc(F)n2)[C@@H]1C1(CC#N)CC1)c1nc(OC[C@@]23CCCN2C[C@H](F)C3)nc2c(F)c(-c3ccc(F)c4sc(N)c(C#N)c34)c(Cl)cc12 [Compound 108, 2-amino-4-(6-chloro-4-((((2S,3R)-2-(1-(cyanomethyl)cyclopropyl)-1-(3-fluoro-1H-1,2,4-triazole-1-carbonyl)azetidin-3-yl)methyl)(methyl)amino)-8-fluoro-2-(((2R,7aS)-2-fluorotetrahydro-1H-pyrrolizin-7a(5H)-yl)methoxy)quinazolin-7-yl)-7-fluorobenzo[b]thiophene-3-carbonitrile] | ≤ 0.5 µM | –
5 | CC(C)[C@H]1N(C(=O)n2cnc(Cl)n2)C[C@]12CC[C@H](C)N(c1nc(OC[C@@]34CCCN3C[C@H](F)C4)nc3c(F)c(-c4ccc(F)c5sc(N)c(C#N)c45)c(Cl)cc13)C2 [Compound 192, 2-amino-4-(6-chloro-4-((1R,4R,7S)-2-(3-chloro-1H-1,2,4-triazole-1-carbonyl)-1-isopropyl-7-methyl-2,6-diazaspiro[3.5]nonan-6-yl)-8-fluoro-2-(((2R,7aS)-2-fluorotetrahydro-1H-pyrrolizin-7a(5H)-yl)methoxy)quinazolin-7-yl)-7-fluorobenzo[b]thiophene-3-carbonitrile] | ≤ 0.5 µM | –
6 | CC(C)[C@H]1N(C(=O)n2cnc(Cl)n2)C[C@@]12CN(c1nc(OC[C@@]34CCCN3C[C@H](F)C4)nc3c(F)c(-c4ccc(F)c5sc(N)c(C#N)c45)c(Cl)cc13)CCO2 [Compound 134, 2-amino-4-(6-chloro-4-((1R,4S)-2-(3-chloro-1H-1,2,4-triazole-1-carbonyl)-1-isopropyl-5-oxa-2,8-diazaspiro[3.5]nonan-8-yl)-8-fluoro-2-(((2R,7aS)-2-fluorotetrahydro-1H-pyrrolizin-7a(5H)-yl)methoxy)quinazolin-7-yl)-7-fluorobenzo[b]thiophene-3-carbonitrile] | ≤ 0.5 µM | –
7 | CC(C)C1N(C(=O)n2cnc(Cl)n2)CC12CCCN(c1nc(OC[C@@]34CCCN3C[C@H](F)C4)nc3c(F)c(-c4ccc(F)c5sc(N)c(C#N)c45)c(Cl)cc13)C2 (stereo partly drawn) [Compound 175, 2-amino-4-(6-chloro-4-(2-(3-chloro-1H-1,2,4-triazole-1-carbonyl)-1-isopropyl-2,6-diazaspiro[3.5]nonan-6-yl)-8-fluoro-2-(((2R,7aS)-2-fluorotetrahydro-1H-pyrrolizin-7a(5H)-yl)methoxy)quinazolin-7-yl)-7-fluorobenzo[b]thiophene-3-carbonitrile] | ≤ 0.5 µM | –
8 | CN(C[C@@H]1CN(C(=O)n2cnc(F)n2)[C@@H]1C(C)(C)C)c1nc(OC[C@@]23CCCN2C[C@H](F)C3)nc2c(F)c(-c3ccc(F)c4sc(N)c(C#N)c34)c(Cl)cc12 [Compound 152, 2-amino-4-(4-((((2S,3R)-2-(tert-butyl)-1-(3-fluoro-1H-1,2,4-triazole-1-carbonyl)azetidin-3-yl)methyl)(methyl)amino)-6-chloro-8-fluoro-2-(((2R,7aS)-2-fluorotetrahydro-1H-pyrrolizin-7a(5H)-yl)methoxy)quinazolin-7-yl)-7-fluorobenzo[b]thiophene-3-carbonitrile] | ≤ 0.5 µM | –
9 | CN(C[C@@H]1CN(C(=O)n2cnc(F)n2)[C@@H]1C1(C(F)F)CC1)c1nc(OC[C@@]23CCCN2C[C@H](F)C3)nc2c(F)c(-c3ccc(F)c4sc(N)c(C#N)c34)c(Cl)cc12 [Compound 186, 2-amino-4-(6-chloro-4-((((2S,3R)-2-(1-(difluoromethyl)cyclopropyl)-1-(3-fluoro-1H-1,2,4-triazole-1-carbonyl)azetidin-3-yl)methyl)(methyl)amino)-8-fluoro-2-(((2R,7aS)-2-fluorotetrahydro-1H-pyrrolizin-7a(5H)-yl)methoxy)quinazolin-7-yl)-7-fluorobenzo[b]thiophene-3-carbonitrile] | ≤ 0.5 µM | –
10 | CCN(C[C@@H]1CN(C(=O)n2cnc(Cl)n2)[C@@H]1C(C)C)c1nc(OC[C@@]23CCCN2C[C@H](F)C3)nc2c(F)c(-c3ccc(F)c4sc(N)c(C#N)c34)c(Cl)cc12 [Compound 154, 2-amino-4-(6-chloro-4-((((2R,3R)-1-(3-chloro-1H-1,2,4-triazole-1-carbonyl)-2-isopropylazetidin-3-yl)methyl)(ethyl)amino)-8-fluoro-2-(((2R,7aS)-2-fluorotetrahydro-1H-pyrrolizin-7a(5H)-yl)methoxy)quinazolin-7-yl)-7-fluorobenzo[b]thiophene-3-carbonitrile] | ≤ 0.5 µM | –
11 | CC1CC(N(C)C(=O)n2cnc(Cl)n2)CN1c1nc(OC[C@@]23CCCN2C[C@H](F)C3)nc2c(F)c(-c3ccc(F)c4sc(N)c(C#N)c34)c(Cl)cc12 (single isomer, unassigned) [Compound 105] | – | 0.5 to 5 µM
12 | CN(C(=O)n1cncn1)C1CCCN(c2nc(OC[C@@]34CCCN3C[C@H](F)C4)nc3c(F)c(-c4ccc(F)c5sc(N)c(C#N)c45)c(Cl)cc23)C1 (stereo partly drawn) [Compound 119, N-(1-(7-(2-amino-3-cyano-7-fluorobenzo[b]thiophen-4-yl)-6-chloro-8-fluoro-2-(((2R,7aS)-2-fluorotetrahydro-1H-pyrrolizin-7a(5H)-yl)methoxy)quinazolin-4-yl)piperidin-3-yl)-N-methyl-1H-1,2,4-triazole-1-carboxamide] | ≤ 0.5 µM | –
13 | N#Cc1c(N)sc2c(F)ccc(-c3c(Cl)cc4c(N5CCCC[C@@]6(C5)CN(C(=O)n5cnc(Cl)n5)[C@@H]6C5CC5)nc(OC[C@@]56CCCN5C[C@H](F)C6)nc4c3F)c12 [Compound 147, 2-amino-4-(6-chloro-4-((1R,4R)-2-(3-chloro-1H-1,2,4-triazole-1-carbonyl)-1-cyclopropyl-2,6-diazaspiro[3.6]decan-6-yl)-8-fluoro-2-(((2R,7aS)-2-fluorotetrahydro-1H-pyrrolizin-7a(5H)-yl)methoxy)quinazolin-7-yl)-7-fluorobenzo[b]thiophene-3-carbonitrile] | ≤ 0.5 µM | –
14 | CC(C)[C@@H]1[C@H](CN(C)c2nc(OC[C@@]34CCCN3C[C@H](F)C4)nc3c(F)c(-c4ccc(F)c5sc(N)c(C#N)c45)c(Cl)cc23)CN1C(=O)n1cnc(Cl)n1 [Compound 208, 2-amino-4-(6-chloro-4-((((2R,3R)-1-(3-chloro-1H-1,2,4-triazole-1-carbonyl)-2-isopropylazetidin-3-yl)methyl)(methyl)amino)-8-fluoro-2-(((2R,7aS)-2-fluorotetrahydro-1H-pyrrolizin-7a(5H)-yl)methoxy)quinazolin-7-yl)-7-fluorobenzo[b]thiophene-3-carbonitrile] | ≤ 0.5 µM | –
15 | C[C@H]1CC[C@]2(CN(C(=O)n3cnc(F)n3)[C@@H]2C2(C(F)F)CC2)CN1c1nc(OC[C@@]23CCCN2C[C@H](F)C3)nc2c(F)c(-c3ccc(F)c4sc(N)c(C#N)c34)c(Cl)cc12 (atropisomer, axis not shown; (aS)) [Compound 194, (R)-2-amino-4-(6-chloro-4-((1S,4R,7S)-1-(1-(difluoromethyl)cyclopropyl)-2-(3-fluoro-1H-1,2,4-triazole-1-carbonyl)-7-methyl-2,6-diazaspiro[3.5]nonan-6-yl)-8-fluoro-2-(((2R,7aS)-2-fluorotetrahydro-1H-pyrrolizin-7a(5H)-yl)methoxy)quinazolin-7-yl)-7-fluorobenzo[b]thiophene-3-carbonitrile] | ≤ 0.5 µM | –
16 | CN(C(=O)n1cncn1)C1CCCCN(c2nc(OC[C@@]34CCCN3C[C@H](F)C4)nc3c(F)c(-c4ccc(F)c5sc(N)c(C#N)c45)c(Cl)cc23)C1 (stereo partly drawn) [Compound 161, N-(1-(7-(2-amino-3-cyano-7-fluorobenzo[b]thiophen-4-yl)-6-chloro-8-fluoro-2-(((2R,7aS)-2-fluorotetrahydro-1H-pyrrolizin-7a(5H)-yl)methoxy)quinazolin-4-yl)azepan-3-yl)-N-methyl-1H-1,2,4-triazole-1-carboxamide] | ≤ 0.5 µM | –
